According to article PMC12114619, “Nifuroxazide and 4-Hydroxybenzhydrazone Derivatives as New Antiparasitic (Trypanosoma cruzi and Leishmania mexicana) and Anti-Mycobacterium tuberculosis Agents” (Pharmaceutics, 2025):
≈ marks a conversion by molar mass, not a printed value. Where “and” joins values, the source holds several entries; their conditions need not be identical. Identical values can stand only once. Like-named read-outs stand apart in the source and are kept apart here.

Columns and labels:
[1] = test system: T. cruzi strain A1 epimastigotes; experiment: Trypanocidal activity, T. cruzi epimastigotes, A1 strain (resazurin); type: cell-based, Trypanosoma cruzi; conditions: 48 h
[2] = test system: L. mexicana MNYC/BZ/62/M379 promastigotes; experiment: Leishmanicidal activity, L. mexicana promastigotes, M379 strain (MTT); type: cell-based, Leishmania mexicana; conditions: 48 h
Protocol: (§1) For leishmanicidal assays, the reference strain (MNYC/BZ/62/M379) and the isolate (MHOM/MX/2017/UABJO17FCQEPS) of L. mexicana were used. Promastigotes were cultured in RPMI 1640 medium supplemented with 10% FBS, 100 U/mL penicillin-100 […] streptomycin, and glutamine (2 mM). 100 µL parasites (5 × 10^5/mL) were added in a 96-well plate, and 100 µL of appropriate concentrations (0.78 to 200 µM) of each sample dissolved in DMSO and incubated for 48 h at 26 °C. Wells containing promastigotes with DMSO 0.2% were used as a negative control, and the reference drug glucantime was included as the positive control. The 3-(4,5-Dimethylthiazol-2-yl)-2,5-diphenyltetrazolium bromide (MTT) was used to measure metabolic activity. The IC50 values were calculated with the probit statistical tool. All samples were evaluated in triplicate in three independent experiments.

[3] = test system: T. cruzi NINOA (MHOM/MX/1994/NINOA) strain epimastigotes; experiment: Trypanocidal activity, T. cruzi epimastigotes, NINOA strain (resazurin); type: cell-based, Trypanosoma cruzi; conditions: 48 h
[4] = test system: M. tuberculosis H37Rv (ATCC 27294); experiment: Anti-Mycobacterium activity, microplate Alamar Blue Assay (MABA); type: cell-based, Mycobacterium tuberculosis; conditions: H37Rv strain, minimum concentration achieving 90% inhibition; for MIC: Mycobacterium tuberculosis
Protocol: The reference strain H37Rv (ATCC 27294) of M. tuberculosis was utilized to assess anti-M. tuberculosis activity using the microplate Alamar Blue Assay (MABA), as previously reported. Samples underwent evaluation in triplicate independent experiments. Isoniazid, rifampicin, moxifloxacin, and linezolid were included as reference drugs, and the minimum drug concentration that achieved 90% inhibition was recorded as the minimum inhibitory concentration (MIC).

[5] = test system: L. mexicana MHOM/MX/2017/UABJO17FCQEPS promastigotes; experiment: Leishmanicidal activity, L. mexicana promastigotes, FCQEPS isolate (MTT); type: cell-based, Leishmania mexicana; conditions: 48 h, FCQEPS strain
Protocol: as §1

[6] = Cytotoxicity on macrophages (MTT); type: cell-based, mouse; conditions: mouse
Protocol: (§2) Cytotoxicity was assessed on J774.2 mouse macrophage cells (ATCC® TIB-67, ATCC, Manassas, VA, USA). Cells were cultured in RPMI medium supplemented with 10% SFB, 100 U µg/mL penicillin-100 mg/mL streptomycin, and glutamine (2 mM) at 37 °C and in a 5% CO2 atmosphere. A known concentration of cells (1 × 10^6/mL) was incubated with the compounds at different concentrations (0.78 to 200 µM) for 48 h at 37 °C in a CO2 atmosphere (5%). Wells containing cells treated with 0.2% DMSO were used as a negative control. MTT was employed to evaluate the metabolic activity. Next, the cell viability was calculated (%), and the cytotoxic concentration (CC50) was determined with probit analysis. All samples were evaluated in triplicate in three independent experiments.

[7] = test system: J774.2 mouse macrophage cells; experiment: Cytotoxicity on macrophages (MTT); type: cell-based
Protocol: as §2

[8] = Cytotoxicity (CC50) Macrophages J774.2

Row | SMILES | IC50 [1] [µM] | IC50 ([1]; Trypanosoma cruzi) [µM] | IC50 [2] | IC50 ([2]; Leishmania mexicana) [µM] | IC50 T. cruzi NINOA [3] | IC50 ([3]; Trypanosoma cruzi) [µM] | MIC [4] [µg/mL] | IC50 ([5]; Leishmania mexicana) [µM] | CC50 at 48 h [6, 8] [µM] | IC50 L. mexicana M379 [2] | IC50 [3] [µM] | MABA MIC [4] [µg/mL] | IC50 ([2]; listed as glucantime) [µM] | IC50 [5] [µM] | IC50 ([5]; listed as glucantime) [µM] | CC50 ([7]; J774.2 macrophages, 48 h, MTT) [µM] | Cytotoxicity (CC50) Macrophages J774.2 [7] | IC50 T. cruzi A1 [1] | CC50 at 48 h ([6]; J774.2 macrophage cells, J774.2 macrophages, 48 h, MTT, read-out: Cytotoxicity (CC50) Macrophages J774.2) [µM]
1 | Cn1cccc1/C=N/NC(=O)c1ccc(O)cc1 [Nfz-5] | 78.5 ± 4.7 | > 100 | 5.25 ± 5.8 µM | 5.2 | inactivity | > 100 | > 100 | > 200 | 21.9 ± 4.4 |  |  |  |  |  |  |  |  |  | 
2 | O=C(N/N=C/c1ccc(Br)s1)c1ccc(O)cc1 [Nfz-2] |  | > 100 |  | > 200 |  | 4.7 | < 20 | 98.8 ± 5.2 | 95.5 ± 4.2 | no leishmanicidal effects | 4.77 ± 5.6 | 18.8 |  |  |  |  |  |  | 
3 | CNC[C@H](O)[C@@H](O)[C@H](O)[C@H](O)CO.[O]=[Sb](=[O])[OH] [Glucantime, reference compound] |  |  | 134 ± 3.1 µM |  |  |  |  |  |  |  |  |  | 134 | 125 ± 1.6 | > 120 | > 200 |  |  | 
4 | O=C(N/N=C/c1ccccc1O)c1ccc(O)cc1 [Nfz-10] | 8.77 ± 1.6 | 8.7 | 66.7 ± 2.9 µM | > 50 |  | > 100 | < 50 | > 200 | > 100 |  |  | 47.6 |  |  |  |  |  |  | 
5 | O=C(N/N=C/c1ccco1)c1ccc(O)cc1 [Nfz-4] | 28.9 ± 3.4 | 28.8 |  | 83.9 ± 6.9 |  | 18.8 | > 100 | > 200 | > 100 |  | 19 ± 2.1 |  |  |  |  |  |  |  | 
6 | O=C(N/N=C/c1ccc(Br)cc1)c1ccc(O)cc1 [Nfz-17] | 33.6 ± 3.9 | < 50 | 62 ± 2.5 µM | > 60 | loss of trypanocidal activity | > 100 | < 50 | 52.1 ± 4.8 | > 100 |  |  | 43.6 |  |  |  |  |  |  | 
7 | O=C(N/N=C/c1cc2c(cc1[N+](=O)[O-])OCO2)c1ccc(O)cc1 [Nfz-23] | 13.5 ± 3.4 | 13.5 | 16 ± 2 µM | < 20 | loss of the activity | > 100 | > 100 | > 200 | 68.9 ± 6.6 |  |  |  |  |  |  |  |  |  | 
8 | O=C(N/N=C/c1ccc2c(c1)OCCO2)c1ccc(O)cc1 [Nfz-21] |  | 49 ± 2.1 |  | 71.5 ± 4.9 | loss of the activity | > 100 | 68.7 (≈ 230 µM) | > 200 | > 100 |  |  |  |  |  |  |  |  |  | 
9 | COc1ccccc1/C=N/NC(=O)c1ccc(O)cc1 [Nfz-12] |  | > 100 | 11.5 µM and 11.6 µM | < 20 | inactivity | > 100 | > 100 | 60.3 ± 4.7 | 76.5 ± 3.6 |  |  |  |  |  |  |  |  |  | 
10 | O=C(N/N=C/c1ccc([N+](=O)[O-])cc1)c1ccc(O)cc1 [Nfz-18] |  | > 100 | > 200 µM | > 100 |  | 44.5 | 186 (≈ 653 µM) | 57.8 ± 2.6 | 2.45 ± 2.9 |  | 44.6 ± 6.3 |  |  |  |  |  | most toxic |  | 
11 | O=C(N/N=C/c1ccccc1[N+](=O)[O-])c1ccc(O)cc1 [Nfz-19] | 42.5 ± 6.7 | 42.4 | 146.7 ± 0.7 µM | > 100 |  | 36.4 | > 100 | > 200 | > 100 |  | 36.5 ± 2.2 |  |  |  |  |  |  |  | 
12 | COC(=O)c1ccc(/C=N/NC(=O)c2ccc(O)cc2)cc1 [Nfz-25] |  | > 100 |  | 32.5 ± 6.1 | no activity | > 100 | < 50 | > 200 | > 100 |  |  | 45.9 |  |  |  |  |  | inactive | 
13 | O=C(N/N=C/c1ccc(F)cc1)c1ccc(O)cc1 [Nfz-15] | 32.6 ± 2.8 | < 50 | 35.1 ± 4.7 µM | ~30 | loss of trypanocidal activity | > 100 | > 100 | 102 ± 2.7 | 74 ± 3.4 |  |  |  |  |  |  |  |  |  | 
14 | O=C(N/N=C/c1ccccc1)c1ccc(O)cc1 [Nfz-6] | 74.4 ± 4.4 | > 70 | 94.22 ± 0.9 µM | > 90 | inactive | > 100 | > 100 | > 200 | 28.8 ± 1.5 |  |  |  |  |  |  |  |  |  | 
15 | O=C(N/N=C/c1ccc([N+](=O)[O-])o1)c1ccc(O)cc1 [Nfz, Nifuroxazide] | 10.4 ± 1.6 | 10.4 |  | > 200 |  | 36 ± 1.2 | < 20 | 51.2 ± 4.2 |  | no leishmanicidal effects |  | 12.3 |  |  |  |  |  |  | 42.2 ± 2.3
16 | COc1ccc(/C=N/NC(=O)c2ccc(O)cc2)cc1 [Nfz-11] | 18.2 ± 1.4 | 18.1 |  | > 200 |  | 28.2 | > 100 | > 200 | 46.6 ± 4.9 |  | 28.2 ± 1.4 |  |  |  |  |  |  |  | 
17 | COc1cccc(/C=N/NC(=O)c2ccc(O)cc2)c1OC [Nfz-13] |  | > 100 |  | 162 ± 6.9 |  | > 60 | 158 (≈ 525 µM) | 124.5 ± 1.1 | > 100 |  | 63.1 ± 1.4 |  |  |  |  |  |  |  | 
18 | O=C(N/N=C/c1ccc(-c2ccccc2)cc1)c1ccc(O)cc1 [Nfz-22] |  | > 100 |  | > 200 |  | 6.8 | > 100 | 133 ± 1.4 | 43.5 ± 2.5 |  | 6.87 ± 1.2 |  |  |  |  |  |  |  | 
19 | COc1cc(/C=N/NC(=O)c2ccc(O)cc2)cc(OC)c1OC [Nfz-14] | 29.2 ± 4.4 | 29.2 |  | > 200 |  | 28 ± 1.9 | > 200 | 10.2 | > 100 |  |  |  |  | 10.3 ± 0.8 |  |  |  |  | 
20 | O=C(N/N=C/c1ccc(Cl)cc1)c1ccc(O)cc1 [Nfz-16] | 40.2 ± 2.7 | < 50 | 67.5 ± 4 µM | > 60 | loss of trypanocidal activity | > 100 | < 50 | 78.1 ± 3.6 | 83.2 ± 3.2 |  |  | 46.4 |  |  |  |  |  |  | 
